From patent US7053234B2 (Amgen Inc., priority 2000, dated 2006)
Converted amounts (≈) assume the structure as drawn. Like-named read-outs stand apart in the source and are kept apart here.

Legend:
[1] = target: T1, Sigma^70 saturated E. coli RNA Polymerase (Escherichia coli, UniProt P0A8T7+P0A8V2); assay: RNA polymerase inhibition assay (E. coli enzyme); type: biochemical
T1 construct: purchased Epicenter
Protocol: The compounds of the present invention can be evaluated for antibacterial activity in a variety of assay formats known to those of skill in art. The specific assays used to select the most appropriate compound for use will typically depend on the targeted bacteria or infection. One common assay involves evaluation of the compounds as RNA polymerase inhibitors. In this assay, buffer (250 mM KCl, 5% Glycerol, 10 mM MgCl2, 0.1 mg/ml BSA) is combined with 6 mM B-M.E., PT5 DNA template, and 1.3 ug/rxn Sigma^70 saturated E. coli RNA Polymerase (Epicenter). The compound is then added in a manner not to exceed 5% DMSO. Nucleotide triphosphates are then added at the following concentration: 250 uM ATP, […] and UTP with 100 uM cold CTP and 50 uM alpha ^32P CTP. The mixture is incubated for 10 min at about 37° C. A [2×] loading buffer is added and the mixture is then run on a 6% urea denaturing PAGE until bromophenol blue reaches the edge of plate. The gel is soaked (about 20 minutes in 10% MeOH and 10% acetic acid, to remove urea), then dried (about 55 minutes at about 85° C. (BioRad Gel Drier)) and exposed to a Phospho Imaging Plate for 1 hour. The plate is then read on a Fujix Bas1000 Imaging System and quantified using MacBas v2.0 software. An IC50 (in uM) can be calculated as the concentration of a drug which reduces the enzyme activity to 50% of the control.

[2] = test system: B. su; assay: MIC determination, B. su; type: cell-based; details: Table 1, 16 hours at 37° C. in LB medium, read-out: B. su (bacterial MIC)
Protocol: (§1) For MIC determinations for selected bacteria, log phase growing bacteria are re-suspended at 1×10^5 bacteria per mL in LB medium. The compound is added and two-fold dilutions are made. The final volume in the 96-well plate is about 100 uL. The plate is incubated at 37° C. in the dark with shaking. After 16 hours of incubation, growth is monitored by reading A600 or by visual inspection. MIC is defined as the minimum concentration of drug resulting in inhibition of visible growth of bacterial under the conditions described (above) in National Committee for Clinical Laboratory Standards 1993. Methods for dilution antimicrobial susceptibility tests for bacteria that grow aerobically. Approved standard M7-A3; National Committee for Clinical Laboratory Standards: Villanova, Pa.

[3] = test system: E. coli (tolC); assay: MIC determination, E. coli (tolC); type: cell-based; details: Escherichia coli
Protocol: as §1

[4] = test system: S. aureus; assay: MIC determination, S. aureus; type: cell-based; details: Staphylococcus aureus
Protocol: The compound is added and two-fold dilutions are made. The final volume in the 96-well plate is about 100 uL. The plate is incubated at 37° C. in the dark with shaking. After 16 hours of incubation, growth is monitored by reading A600 or by visual inspection. […] Methods for dilution antimicrobial susceptibility tests for bacteria that grow aerobically. Approved standard M7-A3; National Committee for Clinical Laboratory Standards: Villanova, Pa.

[5] = target: RNA-pol S. aureus (Staphylococcus aureus, UniProt P47768+Q2G0N5); assay: RNA polymerase inhibition assay (S. aureus enzyme); type: biochemical
[6] = Table 1, enzyme not named, method uses E. coli RNA polymerase, read-out: IC50
[7] = 16 h, read-out: E. c(tolC) (bacterial MIC)
[8] = Table 1, MIC, 16 hours at 37° C. in LB medium, read-out: S. au (bacterial MIC)
[9] = Table 2, read-out: RNA-pol IC50 (μM) E. coli
[10] = read-out: MIC (μM) E. coli (tolC)
[11] = Table 2, read-out: RNA-pol IC50 (μM) S. aureus
[12] = Table 2, read-out: MIC (μM) S. aureus

T1 sequence (P0A8V2 whole entry): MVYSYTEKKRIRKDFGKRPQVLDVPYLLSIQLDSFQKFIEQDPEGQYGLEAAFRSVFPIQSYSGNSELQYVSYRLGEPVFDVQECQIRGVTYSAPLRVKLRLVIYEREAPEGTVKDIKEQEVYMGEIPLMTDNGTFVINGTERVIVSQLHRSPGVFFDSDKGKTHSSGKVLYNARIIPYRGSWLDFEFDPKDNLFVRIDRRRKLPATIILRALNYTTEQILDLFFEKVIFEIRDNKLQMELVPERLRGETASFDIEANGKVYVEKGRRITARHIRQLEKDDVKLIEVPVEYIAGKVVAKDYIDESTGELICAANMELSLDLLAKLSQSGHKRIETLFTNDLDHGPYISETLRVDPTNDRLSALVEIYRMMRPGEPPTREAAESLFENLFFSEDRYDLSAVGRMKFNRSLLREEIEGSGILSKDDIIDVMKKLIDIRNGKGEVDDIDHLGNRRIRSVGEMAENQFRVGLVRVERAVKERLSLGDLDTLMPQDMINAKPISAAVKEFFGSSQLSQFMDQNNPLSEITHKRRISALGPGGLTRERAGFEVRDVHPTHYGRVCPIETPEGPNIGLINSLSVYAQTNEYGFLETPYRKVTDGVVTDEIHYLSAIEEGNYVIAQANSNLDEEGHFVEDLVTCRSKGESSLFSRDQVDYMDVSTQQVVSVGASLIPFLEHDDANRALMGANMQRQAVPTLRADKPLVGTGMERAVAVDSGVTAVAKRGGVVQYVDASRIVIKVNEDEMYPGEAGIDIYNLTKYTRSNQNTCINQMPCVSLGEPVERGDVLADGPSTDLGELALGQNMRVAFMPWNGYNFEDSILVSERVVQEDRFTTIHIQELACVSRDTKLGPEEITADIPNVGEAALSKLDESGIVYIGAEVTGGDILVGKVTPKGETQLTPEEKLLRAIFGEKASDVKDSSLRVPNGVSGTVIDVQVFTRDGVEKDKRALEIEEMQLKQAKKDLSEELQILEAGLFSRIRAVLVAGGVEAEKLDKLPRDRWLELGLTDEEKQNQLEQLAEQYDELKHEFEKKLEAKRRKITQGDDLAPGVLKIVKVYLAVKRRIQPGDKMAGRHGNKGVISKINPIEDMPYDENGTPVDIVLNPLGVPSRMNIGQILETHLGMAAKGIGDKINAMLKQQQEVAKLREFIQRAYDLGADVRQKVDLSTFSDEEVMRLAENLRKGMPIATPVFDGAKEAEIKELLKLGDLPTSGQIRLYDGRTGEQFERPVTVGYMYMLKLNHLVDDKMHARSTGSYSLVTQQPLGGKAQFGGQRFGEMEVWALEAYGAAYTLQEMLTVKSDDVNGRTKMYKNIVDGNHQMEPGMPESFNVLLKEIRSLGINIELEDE
T1 sequence (P0A8T7 whole entry): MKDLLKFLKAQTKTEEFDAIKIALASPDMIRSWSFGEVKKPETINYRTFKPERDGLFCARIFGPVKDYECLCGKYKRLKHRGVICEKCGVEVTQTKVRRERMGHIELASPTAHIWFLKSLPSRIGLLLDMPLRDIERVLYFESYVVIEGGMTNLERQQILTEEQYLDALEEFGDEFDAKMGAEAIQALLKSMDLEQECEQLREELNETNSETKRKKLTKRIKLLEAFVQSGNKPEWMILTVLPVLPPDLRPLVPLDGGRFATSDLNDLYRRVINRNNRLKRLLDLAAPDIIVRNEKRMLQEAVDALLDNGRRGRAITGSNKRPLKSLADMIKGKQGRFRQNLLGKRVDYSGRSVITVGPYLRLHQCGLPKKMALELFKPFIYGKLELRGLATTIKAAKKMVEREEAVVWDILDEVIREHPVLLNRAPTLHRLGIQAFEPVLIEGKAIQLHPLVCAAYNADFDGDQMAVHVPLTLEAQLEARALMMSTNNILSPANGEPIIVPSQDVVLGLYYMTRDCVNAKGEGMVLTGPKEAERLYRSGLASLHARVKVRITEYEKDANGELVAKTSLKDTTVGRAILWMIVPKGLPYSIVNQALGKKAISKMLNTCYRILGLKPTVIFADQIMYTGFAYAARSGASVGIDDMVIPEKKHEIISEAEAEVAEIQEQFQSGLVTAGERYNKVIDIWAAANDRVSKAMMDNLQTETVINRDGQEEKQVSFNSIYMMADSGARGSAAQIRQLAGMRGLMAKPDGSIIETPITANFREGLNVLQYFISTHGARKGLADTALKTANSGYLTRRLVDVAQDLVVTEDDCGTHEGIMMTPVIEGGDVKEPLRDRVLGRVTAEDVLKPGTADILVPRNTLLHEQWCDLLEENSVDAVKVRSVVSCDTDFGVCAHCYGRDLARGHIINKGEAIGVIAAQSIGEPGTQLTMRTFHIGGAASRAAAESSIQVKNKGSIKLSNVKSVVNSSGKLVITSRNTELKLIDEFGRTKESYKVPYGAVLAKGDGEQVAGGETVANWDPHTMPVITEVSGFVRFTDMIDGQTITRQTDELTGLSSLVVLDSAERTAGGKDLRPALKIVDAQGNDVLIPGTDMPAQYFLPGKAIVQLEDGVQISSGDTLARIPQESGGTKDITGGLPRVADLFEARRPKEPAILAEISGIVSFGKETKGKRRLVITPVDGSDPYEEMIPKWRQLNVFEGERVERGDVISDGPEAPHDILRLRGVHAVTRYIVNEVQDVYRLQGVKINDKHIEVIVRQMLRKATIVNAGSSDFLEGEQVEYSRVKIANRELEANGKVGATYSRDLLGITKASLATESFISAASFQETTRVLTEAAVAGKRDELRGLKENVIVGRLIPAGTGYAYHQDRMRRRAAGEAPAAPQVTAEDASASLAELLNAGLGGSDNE
T1 sequence (P0A7Z4 whole entry partner): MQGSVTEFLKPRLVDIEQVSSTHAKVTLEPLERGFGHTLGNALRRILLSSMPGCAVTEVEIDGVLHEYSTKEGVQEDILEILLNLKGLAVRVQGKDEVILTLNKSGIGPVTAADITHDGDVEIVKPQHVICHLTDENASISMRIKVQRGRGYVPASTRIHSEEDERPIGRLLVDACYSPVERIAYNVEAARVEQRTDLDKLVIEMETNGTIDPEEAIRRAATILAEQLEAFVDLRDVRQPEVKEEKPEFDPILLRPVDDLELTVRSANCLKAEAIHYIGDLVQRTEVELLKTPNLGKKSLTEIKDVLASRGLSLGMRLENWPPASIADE
T1 sequence (P0A800 whole entry partner): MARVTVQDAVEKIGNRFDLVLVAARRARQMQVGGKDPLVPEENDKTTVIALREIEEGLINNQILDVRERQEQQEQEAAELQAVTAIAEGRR
T1 sequence (P00579 whole entry partner): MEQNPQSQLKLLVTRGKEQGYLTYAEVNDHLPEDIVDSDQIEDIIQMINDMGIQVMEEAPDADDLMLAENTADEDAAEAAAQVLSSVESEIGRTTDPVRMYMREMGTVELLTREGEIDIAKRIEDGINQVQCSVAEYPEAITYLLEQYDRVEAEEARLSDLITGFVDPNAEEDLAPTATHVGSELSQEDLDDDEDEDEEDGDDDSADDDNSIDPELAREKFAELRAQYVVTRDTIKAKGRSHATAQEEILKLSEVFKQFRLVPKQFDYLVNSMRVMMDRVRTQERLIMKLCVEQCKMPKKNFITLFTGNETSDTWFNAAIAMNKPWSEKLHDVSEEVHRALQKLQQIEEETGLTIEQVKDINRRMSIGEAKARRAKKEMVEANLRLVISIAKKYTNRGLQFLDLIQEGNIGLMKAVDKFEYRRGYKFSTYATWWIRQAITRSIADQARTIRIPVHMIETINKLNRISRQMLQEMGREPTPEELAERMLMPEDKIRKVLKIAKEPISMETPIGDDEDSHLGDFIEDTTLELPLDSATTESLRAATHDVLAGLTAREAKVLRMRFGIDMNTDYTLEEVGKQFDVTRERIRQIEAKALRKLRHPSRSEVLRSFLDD

Structure (SMILES)	IC50 [1, 6]	MIC [2]	MIC [3, 7]	MIC [4, 8]	IC50 [1, 9]	MIC [3, 10]	IC50 [5, 11]	MIC [4, 12]	IC50 [5]
ON=C(Nc1cccc(Cl)c1)c1cccc(OC(F)(F)F)c1 [R′=3-OCF3, R″=H, R′″=3-Cl]	10 to 50 µM	< 40 µM	< 40 µM	40 to 125 µM (≈ 13.2 to 41.3 µg/mL)	–	–	–	–	–
ON=C(Nc1cccc(Cl)c1)c1ccc(Cl)c(C(F)(F)F)c1 [Example 64]	< 10 µM	< 40 µM	< 40 µM	< 40 µM	–	–	–	–	–
ON=C(Nc1cccc(Br)c1)c1cccc(C(F)(F)F)c1 [R′=3-CF3, R″=H, R′″=3-Br]	10 to 50 µM	< 40 µM	< 40 µM	40 to 125 µM (≈ 14.4 to 44.9 µg/mL)	–	–	–	–	–
ON=C(Nc1cccc(F)c1)c1ccc(Cl)c(Cl)c1 [R′=3-Cl, R″=4-Cl, R′″=3-F]	10 to 50 µM	40 to 125 µM (≈ 12 to 37.4 µg/mL)	< 40 µM	40 to 125 µM (≈ 12 to 37.4 µg/mL)	–	–	–	–	–
[N-]=[N+]=Nc1cc(/C(=N/O)Nc2cccc(Cl)c2)cc(C(F)(F)F)c1F [Compound 115]	–	–	–	–	> 50 µM	< 40 µM	> 50 µM	< 40 µM	–
ON=C(Nc1cccc(Cl)c1)c1ccc(NCCc2ccc(O)cc2)c(C(F)(F)F)c1 [Compound 113]	–	–	–	–	10 to 50 µM	< 40 µM	–	< 40 µM	–
O=[N+]([O-])c1cc(C(=NO)Nc2ccccc2)ccc1Cl [Example 15]	10 to 50 µM	> 125 µM	> 125 µM	> 125 µM	–	–	–	–	–
NS(=O)(=O)c1ccc(CCNc2ccc(C(=NO)Nc3cccc(Cl)c3)cc2C(F)(F)F)cc1 [Compound 114]	–	–	–	–	< 10 µM	< 40 µM	–	< 40 µM	> 50 µM
ON=C(Nc1cccc(Cl)c1)c1ccc(Cl)cc1 [R′=4-Cl, R″=H, R′″=3-Cl]	> 50 µM	40 to 125 µM (≈ 11.2 to 35.1 µg/mL)	< 40 µM	40 to 125 µM (≈ 11.2 to 35.1 µg/mL)	–	–	–	–	–
ON=C(Nc1ccccc1)c1ccc(F)c(C(F)(F)F)c1 [Example 16]	10 to 50 µM	40 to 125 µM (≈ 11.9 to 37.3 µg/mL)	< 40 µM	> 125 µM	–	–	–	–	–
OCCNc1ccc(C(=NO)Nc2cccc(Cl)c2)cc1C(F)(F)F [Compound 111]	–	–	–	–	10 to 50 µM	< 40 µM	–	> 125 µM	–
ON=C1CCN(c2ccc(C(=NO)Nc3cccc(Cl)c3)cc2C(F)(F)F)C1 [Compound 109]	–	–	–	–	10 to 50 µM	< 40 µM	–	< 40 µM	> 50 µM
ON=C(Nc1ccccc1)c1cc(C(F)(F)F)cc(C(F)(F)F)c1 [R′=3-CF3, R″=5-CF3, R′″=H]	> 50 µM	40 to 125 µM (≈ 13.9 to 43.5 µg/mL)	< 40 µM	40 to 125 µM (≈ 13.9 to 43.5 µg/mL)	–	–	–	–	–
Nc1cc(/C(=N/O)Nc2cccc(Cl)c2)cc(C(F)(F)F)c1F [Compound 116]	–	–	–	–	< 10 µM	< 40 µM	> 50 µM	< 40 µM	–
N#Cc1cccc(NC(=NO)c2cccc(C(F)(F)F)c2)c1 [R′=3-CF3, R″=H, R′″=3-CN]	> 50 µM	> 125 µM	40 to 125 µM (≈ 12.2 to 38.2 µg/mL)	> 125 µM	–	–	–	–	–
O=C(CSc1ccccc1)Nc1cc(COC(=O)Nc2ccc(Cl)c(C(F)(F)F)c2)cc(C(F)(F)F)c1 [Compound 139, (4-Chloro-3-trifluoromethyl-phenyl)-carbamic acid 3-(2-phenylsulfanyl-acetylamino)-5-trifluoromethyl benzyl ester]	–	–	–	–	–	< 40 µM	10 to 50 µM	< 40 µM	–
CON=C1CCN(c2ccc(C(=NO)Nc3cccc(Cl)c3)cc2C(F)(F)F)C1 [Compound 110]	–	–	–	–	> 50 µM	> 125 µM	–	40 to 125 µM (≈ 17.1 to 53.4 µg/mL)	> 50 µM
ON=C(Nc1cccc(Cl)c1)c1ccc(NCCN2CCNCC2)c(C(F)(F)F)c1 [Compound 112]	–	–	–	–	10 to 50 µM	< 40 µM	–	> 125 µM	> 50 µM
O=C(Nc1ccc(Cl)c(C(F)(F)F)c1)OCc1cc(-n2cccc2)cc(C(F)(F)F)c1 [Compound 137]	–	–	–	–	–	< 40 µM	10 to 50 µM	< 40 µM	–
ON=C(Nc1cccc(F)c1)c1cccc(C(F)(F)F)c1 [R′=3-CF3, R″=H, R′″=3-F]	10 to 50 µM	40 to 125 µM (≈ 11.9 to 37.3 µg/mL)	< 40 µM	40 to 125 µM (≈ 11.9 to 37.3 µg/mL)	–	–	–	–	–
O=C(CNc1ccc(Cl)c(C(F)(F)F)c1)Nc1cc(NC(=O)COc2ccc(Cl)cc2)cc(C(F)(F)F)c1 [Compound 130]	–	–	–	–	–	> 125 µM	> 50 µM	< 40 µM	–
O=C(CNc1ccc(N2CCCCC2)c(C(F)(F)F)c1)Nc1cc(COc2cccc(Cl)c2)cc(C(F)(F)F)c1 [Compound 136, N-[3-(3-Chloro-phenoxymethyl)-5-trifluoromethyl-phenyl]-2-(4-piperidin-1-yl-3-trifluoromethyl-phenylamino)-acetamide]	–	–	–	–	–	> 125 µM	< 10 µM	< 40 µM	–
O=C(CSc1ccccc1)Nc1cc(NC(=O)Nc2ccc(Cl)c(C(F)(F)F)c2)cc(C(F)(F)F)c1 [Compound 120]	–	–	–	–	> 50 µM	< 40 µM	10 to 50 µM	< 40 µM	–
ON=C(Nc1ccccc1)c1ccc(Cl)c(C(F)(F)F)c1 [Example 65]	< 10 µM	40 to 125 µM (≈ 12.6 to 39.3 µg/mL)	< 40 µM	< 40 µM	–	–	–	–	–
Nc1cc(NC(=O)Nc2ccc(Cl)c(C(F)(F)F)c2)cc(C(F)(F)F)c1 [Compound 118]	–	–	–	–	–	< 40 µM	> 50 µM	< 40 µM	–
ON=C(Nc1cccc(Oc2ccccc2)c1)c1cccc(C(F)(F)F)c1 [R′=3-CF3, R″=H, R′″=3-OPh]	> 50 µM	< 40 µM	< 40 µM	< 40 µM	–	–	–	–	–
